In patent publication US8895754B2, “Process to make UV radiation absorbing 2-phenyl-1,2,3,-benzotriazoles” (DSM IP Assets B.V., priority 2010, dated 2014):

Experiment: Determination of the solubility in cosmetic solvents
Assay type: physicochemical
Details: saturated solution stirred 7 days at room temperature, concentration by HPLC; for solubility Finsolv TN: C12-15 Alkylbenzoate; for solubility Myritol 318: Capric/Caprylic Triglyceride
Protocol: 1.5 g of a cosmetic solvent (Capric/Caprylic Triglyceride (Mygliol 318) and C12-15 Alkylbenzoate (Finsolv TN)) is saturated with the respective Benzotriazol-derivative by adding 0.2 g portions while stirring at room temperature. The saturated solution is stirred for 7 days at room temperature. 1 ml of the supernatant is centrifuged and filtered in order to obtain a clear solution. The concentration of the Benzotriazol-derivative is determined by means of HPLC.

| solubility Finsolv TN | solubility Myritol 318 | SMILES |
| --- | --- | --- |
| 42% | 24% | CCCCC(CC)C(=O)OCc1cc(C)cc(-n2nc3ccccc3n2)c1O (stereo not shown) [Example 7, 2-Ethyl-hexanoic Acid 3-(2H-benzotriazol-2-yl)-2-hydroxy-5-methyl-benzyl Ester] |
| 8% | 6% | Cc1cc(COC(=O)CC(C)C)c(O)c(-n2nc3ccccc3n2)c1 [Example 8, 3-Methyl-butyric Acid 3-(2H-benzotriazol-2-yl)-2-hydroxy-5-methyl-benzyl Ester] |
| 0.02% | 0.01% | Cc1cc(COCc2cc(C)cc(-n3nc4ccccc4n3)c2O)c(O)c(-n2nc3ccccc3n2)c1 [Example 9, 3,3′-Bis(2H-benzotriazol-2-yl)-2,2′-dihydroxy-5,5′-dimethylbenzyl Ether] |

| SMILES | solubility Finsolv TN | solubility Myritol 318 |
| --- | --- | --- |
| Cc1cc(COCCC(C)C)c(O)c(-n2nc3ccccc3n2)c1 [Example 4, 2-(2H-Benzotriazol-2-yl)-6-(3-methyl-butoxymethyl)-4-methyl-phenol] | 37% | 36% |
| Cc1cc(COCCC(C)C)c(O)c(-n2nc3ccc(Cl)cc3n2)c1 [Example 6, 2-(5-Chloro-2H-benzotriazol-2-yl)-4-methyl-6-(3-methyl-butoxymethyl)-phenol] | 19% | 12% |
